target: T1, human apelin receptor (Homo sapiens, UniProt P35414); experiment: Determination of agonism on the human apelin receptor by a calcium fluorescence assay (FLIPR); format: cell-based; settings: EC50 (APJ agonism), HEK293 cells stably transfected with human apelin receptor and Giaq protein, Fluo-4 calcium fluorescence
T1 construct: expressed in transfected cells
T1 sequence (P35414 1-380): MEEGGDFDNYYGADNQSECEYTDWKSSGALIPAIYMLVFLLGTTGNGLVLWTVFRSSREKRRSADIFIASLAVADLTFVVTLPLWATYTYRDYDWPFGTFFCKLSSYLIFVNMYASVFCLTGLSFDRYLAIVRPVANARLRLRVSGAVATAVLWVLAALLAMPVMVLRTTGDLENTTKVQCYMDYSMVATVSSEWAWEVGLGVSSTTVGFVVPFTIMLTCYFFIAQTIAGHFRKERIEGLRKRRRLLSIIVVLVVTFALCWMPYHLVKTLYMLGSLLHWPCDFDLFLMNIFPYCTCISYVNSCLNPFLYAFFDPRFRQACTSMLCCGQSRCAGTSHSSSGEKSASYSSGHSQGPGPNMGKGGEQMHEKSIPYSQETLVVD
Summary of the method: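 Agonist EC50s come from peak intracellular calcium transients recorded by FLIPR Tetra, scaled to the 1 μM apelin-13 maximum per plate. Test system: HEK293 stably transfected with human apelin receptor plus Giaq, Fluo-4-loaded (4 μM, 1 h, 37 °C, pH 7.4 buffer with probenecid); ≥7 concentrations, triplicates.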

Structure (SMILES)	EC50
CCC(CC)n1c(Cc2cccs2)nc2cc(C(=O)NC(CO)C(C)C)ccc21 (stereo not shown) [Example 189, 1-(1-Ethyl-propyl)-2-thiophen-2-ylmethyl-1H-benzoimidazole-5-carboxylic acid (1-hydroxymethyl-2-methyl-propyl)-amide]	12.2 µM
CCC(CC)n1c(Cc2cccs2)nc2cc(C(=O)N[C@H](CO)C(C)C)ccc21 [Example 190, 1-(1-Ethyl-propyl)-2-thiophen-2-ylmethyl-1H-benzoimidazole-5-carboxylic acid ((S)-1-hydroxymethyl-2-methyl-propyl)-amide]	6.28 µM
CCC(CC)n1c(Cc2cccs2)nc2cc(C(=O)N[C@H](CO)C(C)(C)C)ccc21 [Example 192, 1-(1-Ethyl-propyl)-2-thiophen-2-ylmethyl-1H-benzoimidazole-5-carboxylic acid ((S)-1-hydroxymethyl-2,2-dimethyl-propyl)-amide]	14 µM

same assay, conditions: HEK293 cells stably transfected with human apelin receptor and Giaq protein, Fluo-4 calcium fluorescence, read-out: EC50 (APJ agonism)

Structure (SMILES)	EC50
CCC[C@@H](CO)NC(=O)c1ccc2c(c1)nc(CC1CCCC1)n2C(CC)CC [Example 186, 2-Cyclopentylmethyl-1-(1-ethyl-propyl)-1H-benzoimidazole-5-carboxylic acid ((S)-1-hydroxymethyl-butyl)-amide]	4.67 µM
CCC(CC)n1c(CC2CCCC2)nc2cc(C(=O)N[C@H](CO)C(C)C)ccc21 [Example 187, 2-Cyclopentylmethyl-1-(1-ethyl-propyl)-1H-benzoimidazole-5-carboxylic acid ((S)-1-hydroxymethyl-2-methyl-propyl)-amide]	29 µM
CCC(CC)n1c(Cc2cccs2)nc2cc(C(=O)N[C@H](CO)CCSC)ccc21 [Example 188, 1-(1-Ethyl-propyl)-2-thiophen-2-ylmethyl-1H-benzoimidazole-5-carboxylic acid ((S)-1-hydroxymethyl-3-methylsulfanyl-propyl)-amide]	4.52 µM
CCC(CC)n1c(Cc2cccs2)nc2cc(C(=O)N[C@@H](CO)CC(C)C)ccc21 [Example 191, 1-(1-Ethyl-propyl)-2-thiophen-2-ylmethyl-1H-benzoimidazole-5-carboxylic acid ((R)-1-hydroxymethyl-3-methyl-butyl)-amide]	6.29 µM
CCC(CC)n1c(Cc2cccs2)nc2cc(C(=O)NC3(CO)CCCC3)ccc21 [Example 193, 1-(1-Ethyl-propyl)-2-thiophen-2-ylmethyl-1H-benzoimidazole-5-carboxylic acid (1-hydroxymethyl-cyclopentyl)-amide]	6.22 µM
CCC(CC)n1c(Cc2cccs2)nc2cc(C(=O)N[C@H](CO)[C@@H](C)CC)ccc21 [Example 194, 1-(1-Ethyl-propyl)-2-thiophen-2-ylmethyl-1H-benzoimidazole-5-carboxylic acid ((1S,2S)-1-hydroxymethyl-2-methyl-butyl)-amide]	0.96 µM
CCC(CC)n1c(Cc2cccs2)nc2cc(C(=O)N[C@@H](CO)CCSC)ccc21 [Example 195, 1-(1-Ethyl-propyl)-2-thiophen-2-ylmethyl-1H-benzoimidazole-5-carboxylic acid ((R)-1-hydroxymethyl-3-methylsulfanyl-propyl)-amide]	15.2 µM
CCCC(CO)NC(=O)c1ccc2c(c1)nc(Cc1cccs1)n2C(CC)CC (stereo not shown) [Example 196, 1-(1-Ethyl-propyl)-2-thiophen-2-ylmethyl-1H-benzoimidazole-5-carboxylic acid (1-hydroxymethyl-butyl)-amide]	0.922 µM
CCCCC(CO)NC(=O)c1ccc2c(c1)nc(Cc1cccs1)n2C(CC)CC (stereo not shown) [Example 197, 1-(1-Ethyl-propyl)-2-thiophen-2-ylmethyl-1H-benzoimidazole-5-carboxylic acid (1-hydroxymethyl-pentyl)-amide]	1.04 µM
CCCC[C@H](CO)NC(=O)c1ccc2c(c1)nc(Cc1cccs1)n2C(CC)CC [Example 198, 1-(1-Ethyl-propyl)-2-thiophen-2-ylmethyl-1H-benzoimidazole-5-carboxylic acid ((R)-1-hydroxymethyl-pentyl)-amide]	8.88 µM
